Measurements: patent US8835476B2, “Synthesis of novel antimicrobials” (priority 2005, dated 2014)

What was measured:
Type in all cases: cell-based
[1] = system: S. maltophilia ATCC 13637; assay: Broth microdilution MIC, ATCC strains; conditions: Stenotrophomonas maltophilia, ATCC13637; S. maltophilia ATCC 13637; read-out: MIC (growth inhibition, microdilution method)
Source text: (§1) All clinical isolates tested were from The North American Urinary Tract Infection Collaborative Alliance (NAUTICA) which is a UTI surveillance study involving 40 medical centres (30 from the US and 10 from Canada). Each centre submitted up to 50 consecutive outpatient midstream urine isolates. All isolates were deemed significant urinary tract pathogens by individual laboratory criteria and identified to the species level by each laboratory's existing protocol. Isolates were transported to the coordinating laboratory (Health Sciences Centre, Winnipeg, Canada) on charcoal swabs. Only one isolate per patient was accepted. Upon receipt, isolates were cultured by the coordinating laboratory, stocked in skim milk, and stored at −80° C. awaiting reference antibiotic susceptibility testing. Elementary demographic information was also compiled for each isolate. Isolates were selected randomly from the above pool to represent 18 different species of Enterobacteriaceae and non-Enterobacteriaceae. An average of 5 strains of each species were tested for a total of 93 organisms. In addition, 23 reference (ATCC) [both gram negative and gram positive] strains were tested.
(§2) Susceptibilities to the compounds were determined using the National Committee for Clinical Laboratory Standards (NCCLS) M7-A6 broth microdilution method. […] DMSO controls were incorporated into the panel to mimic the quantity of DMSO used in dissolving some of the compounds at the higher concentrations. Each final panel well volume was 100 μl with a bacterial inoculum of 5×10^5 colony forming units (CFU)/ml. Panels were read following 16 to 20 hours of incubation at 35° C. in ambient air. The minimum inhibitory concentration (MIC) was defined as the lowest concentration of antimicrobial inhibiting visible growth. Quality control (QC) was performed using four ATCC QC organisms that were run with every batch set up to insure reproducibility.

E. cloacae ATCC 23355 = assay: Broth microdilution MIC, ATCC strains; conditions: Enterobacter cloacae, ATCC23355; E. cloacae ATCC 23355; read-out: MIC (growth inhibition, microdilution method)
Source text: as §1, §2

E. aerogenes ATCC 13048 = assay: Broth microdilution MIC, ATCC strains; conditions: Klebsiella aerogenes, ATCC13048; E. aerogenes ATCC 13048; read-out: MIC (growth inhibition, microdilution method)
Source text: as §1, §2

S. simulans ATCC 27848 = assay: Broth microdilution MIC, ATCC strains; conditions: Staphylococcus simulans, ATCC27848, read-out: MIC (growth inhibition, microdilution method)
Source text: as §1, §2

P. mirabilis ATCC 29245 = assay: Broth microdilution MIC, ATCC strains; conditions: Proteus mirabilis, ATCC29245; P. mirabilis ATCC 29245; read-out: MIC (growth inhibition, microdilution method)
Source text: as §1, §2

K. pneumoniae ATCC 13883 = assay: Broth microdilution MIC, ATCC strains; conditions: Klebsiella pneumoniae, ATCC13883; K. pneumoniae ATCC 13883; read-out: MIC (growth inhibition, microdilution method)
Source text: as §1, §2

S. warneri ATCC 27836 = assay: Broth microdilution MIC, ATCC strains; conditions: Staphylococcus warneri, ATCC27836; S. warneri ATCC 27836; read-out: MIC (growth inhibition, microdilution method)
Source text: as §1, §2

A. anitratus ATCC 19606 = assay: Broth microdilution MIC, ATCC strains; conditions: Acinetobacter calcoaceticus, ATCC19606; A. anitratus ATCC 19606; read-out: MIC (growth inhibition, microdilution method)
Source text: as §1, §2

[2] = system: S. saprophyticus ATCC 15305; assay: Broth microdilution MIC, ATCC strains; conditions: Staphylococcus saprophyticus, ATCC15305; S. saprophyticus ATCC 15305; read-out: MIC (growth inhibition, microdilution method)
Source text: as §1, §2

[3] = system: S. epidermidis ATCC 14990; assay: Broth microdilution MIC, ATCC strains; conditions: Staphylococcus epidermidis, ATCC14990; S. epidermidis ATCC 14990; read-out: MIC (growth inhibition, microdilution method)
Source text: as §1, §2

S. aureus ATCC 29213 = assay: Broth microdilution MIC, ATCC strains; conditions: for MIC: Staphylococcus aureus, ATCC29213, S. aureus ATCC 29213, read-out: MIC (growth inhibition, microdilution method)
Source text: as §1, §2

[4] = system: E. cloacae clinical isolates; assay: Broth microdilution MIC, clinical isolate strains (NAUTICA); conditions: unit assumed
Source text: as §1, §2

[5] = system: P. mirabilis clinical isolates; assay: as above; conditions: unit assumed
Source text: as §1, §2

[6] = system: B. cepacia clinical isolates; assay: as above; conditions: unit assumed
Source text: as §1, §2

[7] = system: E. coli clinical isolates; assay: as above; conditions: unit assumed
Source text: as §1, §2

[8] = system: E. aerogenes clinical isolates; assay: as above; conditions: unit assumed
Source text: as §1, §2

[9] = system: C. amalonaticus clinical isolates; assay: as above; conditions: unit assumed
Source text: as §1, §2

[10] = system: A. baumanii clinical isolates; assay: as above; conditions: unit assumed
Source text: as §1, §2

[11] = system: C. freundii clinical isolates; assay: as above; conditions: in µg/mL (unit assumed)
Source text: as §1, §2

[12] = system: P. vulgaris clinical isolates; assay: as above; conditions: unit assumed
Source text: as §1, §2

[13] = system: S. liquifaciens clinical isolates; assay: as above; conditions: unit assumed
Source text: as §1, §2

[14] = system: S. marcescens clinical isolates; assay: as above; conditions: unit assumed
Source text: as §1, §2

[15] = system: K. pneumoniae clinical isolates; assay: as above; conditions: unit assumed
Source text: as §1, §2

[16] = system: M. morganii clinical isolates; assay: as above; conditions: unit assumed
Source text: as §1, §2

[17] = system: K. oxytoca clinical isolates; assay: as above; conditions: unit assumed
Source text: as §1, §2

[18] = system: C. koseril clinical isolates; assay: as above; conditions: unit assumed
Source text: as §1, §2

[19] = system: P. stuartii clinical isolates; assay: as above; conditions: unit assumed
Source text: as §1, §2

[20] = system: S. maltophilia clinical isolates; assay: as above; conditions: unit assumed
Source text: as §1, §2

[21] = system: P. retgerri clinical isolates; assay: as above; conditions: unit assumed
Source text: as §1, §2

P. rettgeri CAP = assay: Broth microdilution MIC, reference strains; conditions: Providencia rettgeri; P. rettgeri (CAP in Table 1); read-out: MIC (growth inhibition, microdilution method)
Source text: as §1, §2

[22] = clinical isolates, one table line per isolate
[23] = Table 4B, each table row is one clinical isolate

O=C(O)c1cc(-c2nnn[nH]2)c(-c2ccc(F)cc2)s1 [DNM-121, 5-(4-Fluoro-phenyl)-4-(1H-tetrazol-5-yl)-thiophene-2-carboxylic acid]
32 µg/mL: MIC (growth inhibition, microdilution method) (S. aureus ATCC 29213; S. aureus ATCC 29213)
64 µg/mL: MIC [1] | MIC (E. cloacae ATCC 23355) | MIC (E. aerogenes ATCC 13048) | MIC (S. simulans ATCC 27848) | MIC (P. mirabilis ATCC 29245) | MIC (K. pneumoniae ATCC 13883) | MIC (S. warneri ATCC 27836) | MIC (A. anitratus ATCC 19606) | MIC [2] | MIC [3] | MIC (S. aureus ATCC 29213) | MIC, E. CLOACAE [4, 22] | MIC, P. MIRABILIS [5, 22] | MIC, B. CEPACIA [6, 22] | MIC, E. COLI [7, 22] | MIC, E. AEROGENES [8, 22] | MIC, C. AMALONATICUS [9, 22] | MIC, A. BAUMANII [10, 22] | MIC, P. VULGARIS [12, 22] | MIC, S. LIQUEFACIENS [13, 22] | MIC, S. MARCESCENS [14, 22] | MIC, K. PNEUMONIAE [15, 22] | MIC, M. MORGANII [16, 22] | MIC, K. OXYTOCA [17, 22] | MIC, C. KOSERI [18, 22] | MIC, P. STUARTII [19, 22] | MIC, S. MALTOPHILIA [20, 22] | MIC, P. RETTGERI [21, 22] | MIC (P. rettgeri CAP)
64: MIC, C. FREUNDII [11, 22]

CCOC(=O)c1cc(-c2nnn(C)n2)c(-c2ccc(F)cc2)s1 [DNM-125, ethyl 5-(4-fluorophenyl)-4-(2-methyl-2H-tetrazol-5-yl)thiophene-2-carboxylate]
>16: MIC, C. FREUNDII [11, 23]
> 16 µg/mL: MIC [1] | MIC (E. cloacae ATCC 23355) | MIC (E. aerogenes ATCC 13048) | MIC (S. simulans ATCC 27848) | MIC (P. mirabilis ATCC 29245) | MIC (K. pneumoniae ATCC 13883) | MIC (S. warneri ATCC 27836) | MIC (A. anitratus ATCC 19606) | MIC [2] | MIC [3] | MIC (S. aureus ATCC 29213) | MIC, E. CLOACAE [4, 23] | MIC, P. MIRABILIS [5, 23] | MIC, B. CEPACIA [6, 23] | MIC, E. COLI [7, 23] | MIC, E. AEROGENES [8, 23] | MIC, C. AMALONATICUS [9, 23] | MIC, A. BAUMANII [10, 23] | MIC, P. VULGARIS [12, 23] | MIC, S. LIQUEFACIENS [13, 23] | MIC, S. MARCESCENS [14, 23] | MIC, K. PNEUMONIAE [15, 23] | MIC, M. MORGANII [16, 23] | MIC, K. OXYTOCA [17, 23] | MIC, C. KOSERI [18, 23] | MIC, P. STUARTII [19, 23] | MIC, S. MALTOPHILIA [20, 23] | MIC, P. RETTGERI [21, 23] | MIC (P. rettgeri CAP)
